In US12534696B2, “Systems and methods for immobilizing extracellular matrix material on organ on chip, multilayer microfluidics microdevices, and three-dimensional cell culture systems” (THE TRUSTEES OF THE UNIVERSITY OF PENNSYLVANIA, priority 2015, dated 2026):

Experiments:
human lung fibroblasts [1] = assay: Serum-induced fibrosis in the biomimetic five-layer lung fibrosis model; type: cell-based; settings: 2 μM PP2 added to medium 24 hours after assembly and maintained; cells cultured in 2D with 2% serum, then 0.2% in the model
human lung fibroblasts [2] = assay: Agent-induced injury (fibrotic response) in the five-layer biomimetic lung model; type: cell-based; settings: SHH added exogenously at 500 ng/ml
Description: In order to test whether the cells in the gel layer can be fed via the channels, one experiment was conducted with only cells in the gel layer (FIG. 39). In particular, human lung fibroblasts and THP-1 macrophage cells were included in the gel layer. The gel was created by adding collegen to physiological aqueous buffer. Additionally or alternatively, any aqueous buffer (e.g., phosphate buffered saline (PBS) buffer) can be used. The aqueous buffer can be kept at a concentration between 0.1 and 2 mg/ml and kept at 4° C. Human lung fibroblasts (100 K cells/ml) and THP-1 macrophage (50 K cells/ml) cells were added to the gel during the liquid phase. The side of the membranes facing the chamber slab (e.g. 242 and 251) were treated with sulfo-sanpah to promote collagen/ECM anchorage. The lower channel slab, lower membrane, and chamber slab were stacked. The gel was then pipetted into the chamber (e.g., 231). After the upper membrane and upper channel slab was placed on top, the biomimetic organ model was clamped and the biomimetic organ model was placed in the incubator at 37° C. The biomimetic organ model was incubated for five days. For continuous perfusion of culture medium at 200 μL/hr in each channel, FGM-2 can be used as the medium having a reduced serum (e.g., between 0-2% and 2%).
In this study, the development of the organ injury model was examined. […]

| Compound | effect on serum-induced fibrosis (FIG. 49) (human lung fibroblasts [1]) | induction of fibrotic response (FIG. 48) (human lung fibroblasts [2]) |
| --- | --- | --- |
| CC(C)(C)n1nc(-c2ccc(Cl)cc2)c2c(N)ncnc21 [PP2] | reduced fibrosis | – |
| sonic hedgehog [SHH] | – | a fibrotic response can be induced |
